Experimental data taken from US20120302577A1 (AB SCIENCE, priority 2010, published 2012).
Where a name gives a salt, the structure may show the parent alone.

Legend:
[1] = tested on: patients with advanced GIST; conditions: cited from earlier work
[2] = tested on: patients with GIST; conditions: initial dose 400 mg/day, 345 patients; cited from earlier work
[3] = tested on: patients with advanced GIST; conditions: after 2 months of masitinib; cited from earlier work
[4] = tested on: patients with advanced GIST; assay: Phase 2 clinical trial, metabolic response (FDG-PET); type: in vivo, human; conditions: At 1 month (N = 13)
Text: Methods; Patients: Patients enrolled in this study were aged over 18 years with inoperable, non-pretreated, histologically proven locally advanced or metastatic, c-Kit positive GIST. […] Exclusion criteria included: inadequate organ function defined via blood tests, severe liver or cardiac failure, and severe neurological or psychiatric disorders. Patients receiving a concomitant treatment within 4 weeks before inclusion, and pregnant or lactating women were also excluded.

[5] = tested on: patients with advanced GIST; assay: Phase 2 clinical trial, response rate according to RECIST (CT); type: in vivo, human; conditions: 2 months (N = 30)
Text: Methods; Patients: Patients enrolled in this study were aged over 18 years with inoperable, non-pretreated, histologically proven locally advanced or metastatic, c-Kit positive GIST. […] Exclusion criteria included: inadequate organ function defined via blood tests, severe liver or cardiac failure, and severe neurological or psychiatric disorders. Patients receiving a concomitant treatment within 4 weeks before inclusion, and pregnant or lactating women were also excluded. […] Methods; Statistical analyses: Simon […] two-stage design was used for this prospective, multicenter, single-group, phase II trial. Fourteen patients were initially enrolled, with recruitment of an additional ten patients being dependent on the occurrence of at least one objective RECIST response. This population was further extended to a total of 30 patients to ensure a sufficient evaluable population for all end-points; the type I(α) error was 5% (two-sided) for all analyses. Quantitative variables were described by the number of filled and missing data, mean, standard deviation, median, minimum and maximum. Qualitative variables were described by the number of missing data and, for each modality, frequency and percentage (referring to filled data). Time-to-event data were described using Kaplan-Meier (KM) estimates. The median was provided with its 95% confidence interval (95% CI). […]

[6] = tested on: patients with advanced GIST; assay: Phase 2 clinical trial, safety assessment (adverse events, NCI CTCAE v3.0); type: in vivo, human; conditions: for Abdominal Pain / Abdominal Pain Upper / Anaemia / Asthenia / Diarrhoea / Dry Skin / Erythema / Eye Oedema / Eyelid Oedema / Lacrimation Increased / Mucosal Inflammation / Muscle Spasms / Myalgia / Nausea / Neutropenia / Oedema Peripheral / Pruritus / Rash / Vomiting: N = 30
Text: Methods; Patients: Patients enrolled in this study were aged over 18 years with inoperable, non-pretreated, histologically proven locally advanced or metastatic, c-Kit positive GIST. […] Exclusion criteria included: inadequate organ function defined via blood tests, severe liver or cardiac failure, and severe neurological or psychiatric disorders. Patients receiving a concomitant treatment within 4 weeks before inclusion, and pregnant or lactating women were also excluded. […] All adverse events (AEs), including abnormal serology or haematology, were recorded regardless of causality.

[7] = tested on: imatinib-resistant HMC-1α155 cells; assay: Apoptosis assay by Propidium Iodide staining on imatinib-resistant cells; type: cell-based, human; conditions: imatinib-resistant HMC-1α155 cells exposed to 1 μM
Method: HMC-1 is a human mast cell line derived from a patient with mast cell leukaemia. The cell line used in this study, HMC-1α155, is a clone derived from the original population expressing endogenous Kit bearing the mutation Val 560 to Gly. […] The medium used in this case was a RPMI medium containing L-glutamine (Cambrex cat#12-702F) supplemented with 100 U/mL penicillin and 100 μg/mL streptomycin (Cambrex 100× penicilline/streptomycine mixture cat #17-602E), and with 10% v/v foetal calf serum (AbCys Lot S02823S1800) which has been previously heat-inactivated 30 minutes at 56° C. (RPMI 10). The medium containing the drugs was replaced with fresh one every 3-4 days. […] The principle behind the method for apoptosis assay by Propidium Iodide Staining (PI staining) is as follows: during apoptosis, DNA breakup causes small fragments of DNA to be free in the nucleus. Following appropriate elution with citrate buffer, these fragments are lost from the nucleus. As these cells now have a lower DNA content, subsequent staining with a DNA binding dye will reveal these cells in the sub-G1 region.

[8] = tested on: patients with advanced GIST; assay: Phase 2 clinical trial, time-to-event analysis (PFS, OS); type: in vivo, human
Text: Methods; Patients: Patients enrolled in this study were aged over 18 years with inoperable, non-pretreated, histologically proven locally advanced or metastatic, c-Kit positive GIST. […] Exclusion criteria included: inadequate organ function defined via blood tests, severe liver or cardiac failure, and severe neurological or psychiatric disorders. Patients receiving a concomitant treatment within 4 weeks before inclusion, and pregnant or lactating women were also excluded. […] Time-to-event analyses were calculated from the date of first masitinib intake to the date of event (documented progression or death). Patients who had not progressed at the date of last tumor assessment were censored at that date for PFS. Patients alive at the time of the analysis were censored at the date of last contact for OS. Methods; Statistical analyses: Simon […] two-stage design was used for this prospective, multicenter, single-group, phase II trial. Fourteen patients were initially enrolled, with recruitment of an additional ten patients being dependent on the occurrence of at least one objective RECIST response. This population was further extended to a total of 30 patients to ensure a sufficient evaluable population for all end-points; the type I(α) error was 5% (two-sided) for all analyses. Quantitative variables were described by the number of filled and missing data, mean, standard deviation, median, minimum and maximum. Qualitative variables were described by the number of missing data and, for each modality, frequency and percentage (referring to filled data). Time-to-event data were described using Kaplan-Meier (KM) estimates. The median was provided with its 95% confidence interval (95% CI). PFS rates were given every 6 months with KM estimates. All data analyses and reporting procedures used SAS v9.1 in a Windows XP operating system environment.

Cc1ccc(NC(=O)c2ccc(CN3CCN(C)CC3)cc2)cc1Nc1nccc(-c2cccnc2)n1 [imatinib]
2-year survival rate of patients with advanced GIST ([1]; after introduction of imatinib (pre-imatinib 25%)): about 70%
Patients with early resistance (progression within first 6 months, no response) ([1]; in vivo): 10-15%
2-year PFS rate [2]: 46%
2-year survival [2]: 72%
3-year survival [2]: ~61%
Median PFS [2]: 18 months
Median overall survival (OS) [2]: 55 months

Cc1ccc(NC(=O)c2ccc(CN3CCN(C)CC3)cc2)cc1Nc1nc(-c2cccnc2)cs1 [masitinib, 4-(4-methylpiperazin-1-ylmethyl)-N-[4-methyl-3-(4-pyridin-3-ylthiazol-2-ylamino)phenyl]benzamide-mesylate methane sulfonic acid salt]
Patients with tumour response assessed with DCE-US [3]: 75%
Metabolic response CMR + PMR (metabolic response rate), % [4]: (69.2%)
Metabolic response CMR, % [4]: (0.0%)
Response (RECIST) CR + PR + SD (disease control rate), % [5]: (96.7%) [82.8; 99.9]
Response (RECIST) CR, % ([5]; 7.5 mg/kg/day oral): (0.0%)
Abdominal Pain ([6]; All causalities, All grades): 16 (53.3%) Number (%) of patients
Abdominal Pain Upper ([6]; All causalities, All grades): 9 (30.0%) Number (%) of patients
Anaemia ([6]; All causalities, All grades): 6 (20.0%) Number (%) of patients
Asthenia ([6]; All causalities, All grades): 27 (90.0%) Number (%) of patients
Diarrhoea ([6]; All causalities, All grades): 18 (60.0%) Number (%) of patients
Dry Skin ([6]; All causalities, All grades): 4 (13.3%) Number (%) of patients
Erythema ([6]; All causalities, All grades): 6 (20.0%) Number (%) of patients
Eye Oedema ([6]; All causalities, All grades): 14 (46.7%) Number (%) of patients
Eyelid Oedema ([6]; All causalities, All grades): 7 (23.3%) Number (%) of patients
Lacrimation Increased ([6]; All causalities, All grades): 4 (13.3%) Number (%) of patients
Mucosal Inflammation ([6]; All causalities, All grades): 5 (16.7%) Number (%) of patients
Muscle Spasms ([6]; All causalities, All grades): 12 (40.0%) Number (%) of patients
Myalgia ([6]; All causalities, All grades): 4 (13.3%) Number (%) of patients
Nausea ([6]; All causalities, All grades): 15 (50.0%) Number (%) of patients
Neutropenia ([6]; All causalities, All grades): 5 (16.7%) Number (%) of patients
Oedema Peripheral ([6]; All causalities, All grades): 8 (26.7%) Number (%) of patients
Pruritus ([6]; All causalities, All grades): 11 (36.7%) Number (%) of patients
Rash ([6]; All causalities, All grades): 12 (40.0%) Number (%) of patients
Vomiting ([6]; All causalities, All grades): 10 (33.3%) Number (%) of patients
Abdominal Pain ([6]; All causalities, G3 + G4): 2 (6.7%) Number (%) of patients
Anaemia ([6]; All causalities, G3 + G4): 1 (3.3%) Number (%) of patients
Asthenia ([6]; All causalities, G3 + G4): 1 (3.3%) Number (%) of patients
Diarrhoea ([6]; All causalities, G3 + G4): 1 (3.3%) Number (%) of patients
Eye Oedema ([6]; All causalities, G3 + G4): 1 (3.3%) Number (%) of patients
Mucosal Inflammation ([6]; All causalities, G3 + G4): 1 (3.3%) Number (%) of patients
Neutropenia ([6]; All causalities, G3 + G4): 2 (6.7%) Number (%) of patients
Pruritus ([6]; All causalities, G3 + G4): 1 (3.3%) Number (%) of patients
Rash ([6]; All causalities, G3 + G4): 3 (10.0%) Number (%) of patients
Patients reporting at least one treatment-related AE ([6]; ITT N = 30): All patients
Treatment-related toxicity per patient: abdominal pain ([6]; ITT N = 30): 33%
Treatment-related toxicity per patient: asthenia ([6]; ITT N = 30): 83%
Treatment-related toxicity per patient: cutaneous rash ([6]; ITT N = 30): 40%
Treatment-related toxicity per patient: diarrhoea ([6]; ITT N = 30): 57%
Treatment-related toxicity per patient: eye oedema ([6]; ITT N = 30): 47%
Treatment-related toxicity per patient: muscle spasms ([6]; ITT N = 30): 40%
Treatment-related toxicity per patient: nausea ([6]; ITT N = 30): 47%
Treatment-related toxicity per patient: peripheral oedema ([6]; ITT N = 30): 20%
Treatment-related toxicity per patient: pruritus ([6]; ITT N = 30): 33%
Treatment-related toxicity per patient: upper abdominal pain ([6]; ITT N = 30): 23%
Treatment-related toxicity per patient: vomiting ([6]; ITT N = 30): 23%
Abdominal Pain ([6]; Suspected, All grades): 10 (33.3%) Number (%) of patients
Abdominal Pain Upper ([6]; Suspected, All grades): 7 (23.3%) Number (%) of patients
Anaemia ([6]; Suspected, All grades): 4 (13.3%) Number (%) of patients
Asthenia ([6]; Suspected, All grades): 25 (83.3%) Number (%) of patients
Diarrhoea ([6]; Suspected, All grades): 17 (56.7%) Number (%) of patients
Dry Skin ([6]; Suspected, All grades): 4 (13.3%) Number (%) of patients
Erythema ([6]; Suspected, All grades): 5 (16.7%) Number (%) of patients
Eye Oedema ([6]; Suspected, All grades): 14 (46.7%) Number (%) of patients
Eyelid Oedema ([6]; Suspected, All grades): 7 (23.3%) Number (%) of patients
Lacrimation Increased ([6]; Suspected, All grades): 4 (13.3%) Number (%) of patients
Mucosal Inflammation ([6]; Suspected, All grades): 5 (16.7%) Number (%) of patients
Muscle Spasms ([6]; Suspected, All grades): 12 (40.0%) Number (%) of patients
Myalgia ([6]; Suspected, All grades): 4 (13.3%) Number (%) of patients
Nausea ([6]; Suspected, All grades): 14 (46.7%) Number (%) of patients
Neutropenia ([6]; Suspected, All grades): 5 (16.7%) Number (%) of patients
Oedema Peripheral ([6]; Suspected, All grades): 6 (20.0%) Number (%) of patients
Pruritus ([6]; Suspected, All grades): 10 (33.3%) Number (%) of patients
Rash ([6]; Suspected, All grades): 12 (40.0%) Number (%) of patients
Vomiting ([6]; Suspected, All grades): 7 (23.3%) Number (%) of patients
Abdominal Pain ([6]; Suspected, G3 + G4): 1 (3.3%) Number (%) of patients
Anaemia ([6]; Suspected, G3 + G4): 1 (3.3%) Number (%) of patients
Asthenia ([6]; Suspected, G3 + G4): 1 (3.3%) Number (%) of patients
Diarrhoea ([6]; Suspected, G3 + G4): 1 (3.3%) Number (%) of patients
Eye Oedema ([6]; Suspected, G3 + G4): 1 (3.3%) Number (%) of patients
Mucosal Inflammation ([6]; Suspected, G3 + G4): 1 (3.3%) Number (%) of patients
Neutropenia ([6]; Suspected, G3 + G4): 2 (6.7%) Number (%) of patients
Pruritus ([6]; Suspected, G3 + G4): 1 (3.3%) Number (%) of patients
Rash ([6]; Suspected, G3 + G4): 3 (10.0%) Number (%) of patients
Cardiac side-effects ([6]; to date): no cardiac side-effects have been observed
% apoptosis (cells in apoptosis with respect to overall cells) [7]: More than 45%
OS rates (%) [95% CI] ([8]; 12 months): 96.7%
PFS rate (%) [95% CI] ([8]; 24 months): 60%
PFS rate (%) [95% CI] ([8]; 36 months): 55%
